Test results from patent publication US20260315609A1, “MIXED VASOPRESSIN RECEPTOR AGONIST-ANTAGONIST FOR TREATING END-STAGE LIVER DISEASE AND COMPLICATIONS ASSOCIATED THEREOF” (FERRING B.V., priority 2022, published 2026).
“And” between values parts separate entries of the source, which are not always exact repeats. Equal values may be shown once. Starred links: 1 amine or outer side, 2 acyl side, 3 side chain; linkers in the order of their positions; H or OH if unused. Positions of bridges follow the written chain, without caps; N, C: chain ends. Non-standard residues stand in square brackets, D forms with d. Residues, ends and D or L forms follow the SMILES beside them. Chains are numbered I, II in the order given. *: point of attachment. isoGln = NC(=O)[C@H](CCC(=O)[*:2])N[*:1]; εLys = N[C@@H](CCCCN[*:1])C(=O)[*:2]; Dab = NCC[C@H](N)C(=O)O; PhAc = O=C(Cc1ccccc1)*

Assays:
hV1b receptor = target: T1, hV1b receptor (Homo sapiens, UniProt P47901); assay: Luciferase reporter gene assay, human V1b; conditions: read-out: % MPE
T1 sequence (P47901 1-424): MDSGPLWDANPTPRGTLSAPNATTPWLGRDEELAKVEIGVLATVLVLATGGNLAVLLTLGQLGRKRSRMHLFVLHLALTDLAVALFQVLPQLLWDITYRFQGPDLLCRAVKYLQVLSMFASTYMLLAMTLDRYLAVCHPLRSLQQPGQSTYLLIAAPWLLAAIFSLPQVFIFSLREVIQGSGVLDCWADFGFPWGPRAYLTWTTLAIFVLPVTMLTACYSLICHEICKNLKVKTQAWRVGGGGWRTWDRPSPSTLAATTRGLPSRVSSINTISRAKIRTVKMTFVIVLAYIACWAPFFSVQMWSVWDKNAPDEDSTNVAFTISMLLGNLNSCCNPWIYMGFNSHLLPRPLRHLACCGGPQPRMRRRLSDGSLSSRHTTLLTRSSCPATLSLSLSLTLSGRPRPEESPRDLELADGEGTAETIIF
Experimental: (§1) Cell Lines. Studies were conducted with cell lines expressing rat (r) or human (h) Via, V1b, V2, or OT receptors. For the experiments with human receptors, human embryonic kidney (HEK)-flp-in cells stably expressing the lacZ-Zeocin™ fusion gene were used for expression of hV1a and hV1b. These cells were designed for use with the Flp-In™ expression vector containing the gene of interest (here hV1a or hV1b) and the Flp recombinase expression plasmid, pOG44. For hV2 and hOTR, HEK-293 cells transiently expressing hV2 were used.
Cell Maintenance. […]
(§2) Functional Cell-Based Assays. To detect activity generated by binding of the test compounds to endogenous rV1a receptors or the stably expressed hV1a receptors, Fluorometric Imaging Plate Reader (FL1PR) calcium assays were performed. Briefly, real-time fluorescence of an intracellular calcium-sensitive dye was measured immediately upon addition of the test compound at various concentrations. […] Expression of the luciferase gene was determined after 5-h incubation with various concentrations of test compound. […] For V1a receptor response, area under the curve of the real-time calcium traces, expressed as relative fluorescence units, was determined. […]

[1] = tested on: bile duct ligation (BDL) and ascites rat model; assay: Bile duct ligation (BDL) and ascites rats, SC b.i.d. 5 days; type: in vivo; conditions: for Animal Body Weight: 99.5 μg FB/kg SC b.i.d.
Experimental: Animals: Male Sprague Dawley rats weighing 300-400 grams with bile duct ligations (BDL) performed at 7 weeks of age by the vendor (Harlan, IN). BDL rats were administered 50 μg of vitamin K1 at the time of BDL surgery, prior to shipment, and then once weekly to reduce potential mortality from hemorrhagic complications.
The working solution was stored at 4° C. over the course of the study and warmed to room temperature for 30 minutes before administration.
Animals were weighed daily. […] Each metabolic cage was set up for continuous measurement of spontaneous urine output via force transducers placed […] the urine collection vials to monitor and record the time course of urine output. Data from the calibrated force transducers every time the rats void. […] Only 16 metabolic cages could be used, urine, water, and food intake data were not collected for one animal in the vehicle group. Animals were returned to their home cages for the remainder of the study and were sacrificed before the second treatment on the fifth day. Blood samples were collected from each animal via cardio puncture. Laparotomies were performed and ascites fluid collected and volume measured by pipet. Spleens were dissected from each animal, any excessive fat or connective tissue was removed and the spleens were weighted.

[2] = Preceding clinical study, Cmax; type: in vivo, human; conditions: 0.3 mg
Experimental: The originally planned escalating doses were 0.1, 0.3, 1, 3, 6, and 10 mg, respectively. […] The doses and/or infusion rates could be adjusted based on recommendations from the SRC.

[3] = M1 formation after IV and SC (bolus) injection in healthy rats; conditions: in vivo, s.c. (bolus) injection, rat
From the text: A similar study in healthy rats was used to evaluate the differences between metabolite formation of Compound 1 after IV bolus and SC (bolus) injection.

[4] = M1 formation, subcutaneous infusion in mini-pigs; design: species or system mini-pig; conditions: minipig, in vivo, sc, s.c. infusion
rV1b receptor = target: T2, rV1b receptor (Rattus norvegicus, UniProt P48974); assay: Luciferase reporter gene assay, rat V1b; conditions: read-out: % MPE
T2 sequence (P48974 1-425): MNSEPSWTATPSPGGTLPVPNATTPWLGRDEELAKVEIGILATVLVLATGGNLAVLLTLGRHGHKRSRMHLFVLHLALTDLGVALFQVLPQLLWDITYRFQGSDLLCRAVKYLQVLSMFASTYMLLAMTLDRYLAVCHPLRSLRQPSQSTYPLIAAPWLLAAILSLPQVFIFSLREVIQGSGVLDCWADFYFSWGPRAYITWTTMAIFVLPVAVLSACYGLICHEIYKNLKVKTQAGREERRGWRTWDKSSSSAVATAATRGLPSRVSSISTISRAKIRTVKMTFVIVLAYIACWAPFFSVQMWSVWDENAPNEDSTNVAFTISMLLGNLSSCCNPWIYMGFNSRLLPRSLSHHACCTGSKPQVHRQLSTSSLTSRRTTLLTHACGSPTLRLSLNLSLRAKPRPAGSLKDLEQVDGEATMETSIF
Experimental: as §1
Cell Maintenance. […]
as §2

For `CC[C@H](C)[C@@H]1NC(=O)[C@H](Cc2ccccc2)NC(=O)[C@@H](N)CSSC[C@@H](C(=O)N2CCC[C@H]2C(=O)N[C@@H](CCNC(=O)[C@@H](N)CCCCNC(=O)[C@H](CCCCNC(C)=O)NC(=O)CC[C@H](NC(=O)[C@H](CCCNC(=N)N)NC(=O)[C@@H]2CCCN2C(=O)[C@H](C)NC(=O)[C@H](CC(N)=O)NC(=O)[C@H](CCC(N)=O)NC(=O)[C@H](Cc2ccccc2)NC(=O)[C@@H](Cc2ccc(OC)cc2)NC(=O)Cc2ccccc2)C(N)=O)C(=O)NCC(N)=O)NC(=O)[C@H](CC(N)=O)NC(=O)[C@H](CCC(N)=O)NC1=O` [Compound 1, Glycinamide, L-cysteinyl-L-phenylalanyl-L-isoleucyl-L-glutaminyl-L-asparaginyl-L-cysteinyl-L-prolyl-N4-(phenylacetyl-O-methyl-D-tyrosyl-L-phenylalanyl-L-glutaminyl-L-asparaginyl-L-alanyl-L-prolyl-L-arginyl-L-isoglutamyl-N5-acetyl-L-lysyl-L-ε-lysyl)-L-2,4-diaminobutyryl-, cyclic (1→6)-disulfide] (I: H-CFIQNCP[Dab]G-NH2 / II: PhAc-[dY](Me)FQNAPR[isoGln]K(Ac)[εLys]; disulfide I:1-I:6; amide I:8-II:C), the Emax (hV1b receptor) was 72%, the “Animal Body Weight” value ([1]; day 1) was 362.4 g and the “Animal Body Weight” value ([1]; day 2) was 330.2 g. For the same compound, the “Animal Body Weight” value ([1]; day 3) was 324.6 g, the “Animal Body Weight” value ([1]; day 4) was 329.0 g and the “Animal Body Weight” value ([1]; day 5) was 329.8 ± 2.9 g and 329.8 g. For the same compound, the “Urine Volume” value ([1]; 5-24 hr) was 31.2 mL, the “Urine Volume, Δ versus vehicle” value ([1]; 5-24 hr) was 46% and the Urine creatinine content ([1]; 5-24 hr) was 9.5 mg. The “Urine creatinine content, Δ versus vehicle” value ([1]; 5-24 hr) was −32%, the Urine potassium content ([1]; 5-24 hr) was 0.8 mEq and the “Urine potassium content, Δ versus vehicle” value ([1]; 5-24 hr) was −60%. For the same compound, the Urine sodium content ([1]; 5-24 hr) was 1.1 mEq, the “Urine sodium content, Δ versus vehicle” value ([1]; 5-24 hr) was 85% and the “Urine Volume” value ([1]; 4 hr) was 9.8 mL. The “Urine Volume, Δ versus vehicle” value ([1]; 4 hr) was 367%, the Urine creatinine content ([1]; 4 hr) was 2.7 mg and the “Urine creatinine content, Δ versus vehicle” value ([1]; 4 hr) was 8%. For the same compound, the Urine potassium content ([1]; 4 hr) was 1.1 mEq, the “Urine potassium content, Δ versus vehicle” value ([1]; 4 hr) was 394% and the Urine sodium content ([1]; 4 hr) was 2.6 mEq. For the same compound, the “Urine sodium content, Δ versus vehicle” value ([1]; 4 hr) was 2342%, the “Net Fluid Balance” value ([1]; 24 hours (vehicle 10.0)) was -24.3 mL and the “Urine Volume” value ([1]; 24 hr) was 41.0 ± 4.3 mL and 41.0 mL. The “decrease in mean body weight” value ([1]; between day 1 and 2) was 32.2 g, the “further decrease in mean body weight” value ([1]; between days 2 and 3) was 5.6 g and the BUN ([1]; day 5) was 34 mg/dL. For the same compound, the “BUN, Δ versus vehicle” value ([1]; day 5) was 64%, the Cl ([1]; day 5) was 100 mEq/L and the “Cl, Δ versus vehicle” value ([1]; day 5) was −3%. The Creatinine (blood) ([1]; day 5) was 0.3 mg/dL, the “Na (blood)” value ([1]; day 5) was 139 mEq/L and the “Na (blood), Δ versus vehicle” value ([1]; day 5) was −1%. The PHOS ([1]; day 5) was 5.1 mg/dL, the “PHOS, Δ versus vehicle” value ([1]; day 5) was −21% and the “difference in final body weight versus vehicle” value ([1]; day 5) was 39.8 g. The “Spleen Weight” value ([1]; day 5 (vehicle 2.7)) was 2.3 g, the “Ascites Volume” value ([1]; day 5 (vehicle 19.8)) was 3.8 ± 1.8 mL and 3.8 mL and the hyponatremia ([1]; repeat administration over 5 days) was “failed to provide hyponatremia”. For the same compound, the Cmax ([2]; 6 hour i.v. infusion) was “up to 6 ng/mL”, the Cmax ([2]; s.c. injection) was “up to 2.5 ng/mL” and the metabolised [3] was 80 to 90%. For the same compound, the metabolised [4] was under 20% and the Emax (rV1b receptor) was 97%.
